Patent EP0605432B1, “INDUCTION OF CYTOLYTIC T-L[…] CYTOMEGALOVIRUS POLYPEPTIDES” (CITY OF HOPE, priority 1992, dated 2001)

System: HCMV infected cells
Test: CTL analysis of HPLC purified pp65-CNBr digest peptides
Format: cell-based, human
Conditions: identification method: by experiment
Procedure: For chemical cleavage with CNBr, pp65 was dissolved in 60% formic acid and treated overnight under argon with a 100 fold molar excess of CNBr (over methionine residues). The solvent was evaporated at room temperature under a stream of argon, the residue resuspended in water and lyophilized. The peptides were fractionated by HPLC on a Vydac C4 reverse phase column, using a 90-minute linear gradient from 100% solvent A (0.1% TFA) to 100% solvent B (TFA/H2O/CH3CN, 0.1/9.9/90, v/v/v/). The HPLC purified peaks from map A were subjected to amino acid sequencing (performed by City of Hope) and from map B were used for CTL analysis (performed at the Fred Hutchinson Cancer Center).
Figure 4 is a map produced by the HPLC analysis. The HPLC purified peptide peaks designated by asterisks in Figure 4 were sequenced. These peptides correspond to sequences 1 through 6 (Sequence ID Nos. 1-6), of this application. The invention includes the use of these six peptides or portions thereof to lyse HCMV infected cells, and as immunogens in HCMV vaccines and skin test formulations.

Row | Substance | induction of CTLs that lyse HCMV infected cells
1 | SEQ ID NO:1: Fragment of pp65 protein expressed by HCMV (Towne), 98 amino acid residues, amino acid 12-109 | Induces CTLs that lyse HCMV infected cells
2 | SEQ ID NO:6: C-terminal fragment of HCMV pp65 protein, 62 amino acid residues, amino acid 500-561 | Induces CTLs that lyse HCMV infected cells
